Experiments:
Type in all cases: cell-based
p50α–p85β complex = test: Co-immunoprecipitation of V5-p85β with FLAG-p50α from HEK293T cells; details: serum starved (0.05% serum, 16 h), insulin 100 μg/ml for 90 min; anti-FLAG immunoprecipitation; Fig. 6A
Protocol: (§1) Figure 6 Dimerization of the regulatory subunits. HEK293T cells were transfected with control (GFP), FLAG-p50α (A) or FLAG-p85α (B) alone or with V5-p85β. Expression of the proteins in whole cell lysates (WCLs) is shown in the bottom panels. As indicated, cells were cultured in high serum (10% serum) or serum starved (0.05% serum) for 16 h and prior to lysis were either left untreated or stimulated with either EGF (100 ng/ml for 5 min) or insulin (100 μg/ml for 90 min). Cells were harvested 40 h after transfection and subject to immunoprecipitation using anti-FLAG antibodies. Co-precipitation of V5-p85β was assessed by Western blotting of immunoprecipitated samples using anti-V5 antibodies (top panels). C, WT p85β, WT p50α, and Y307D p50α (equivalent to Tyr607 in p85α) were expressed alone or co-expressed in HEK293T cells cultured in low serum. Samples of WCLs were analyzed by Western blotting using the antibodies indicated and are shown in lower panels. GAPDH is included as a loading control. FLAG-tagged p50α variants were immunoprecipitated from cell lysates using an anti-FLAG antibody, and the co-immunoprecipitation of p85β was assessed using an anti-V5 antibody (top panels). Results are representative of at least three independent experiments. […]

p85α–p85β complex = test: Co-immunoprecipitation of V5-p85β with FLAG-p85α from HEK293T cells; details: serum starved (0.05% serum, 16 h), then EGF 100 ng/ml for 5 min or insulin 100 μg/ml for 90 min; anti-FLAG immunoprecipitation; Fig. 6B
Protocol: as §1

[1] = system: HEK293T cells expressing WT p85β; test: Proliferation of HEK293T cells stably expressing WT p85β; details: AIM-100 8 μM; DMEM + 10% FBS; 1 μg/ml doxycycline; live cell counts, fold change over 24 h; three independent experiments
Protocol: (§2) Figure 4 Proliferation of HEK293T cells expressing ACK and p85β variants.A, proliferation of HEK293T cells stably expressing wtACK and caACK in 1% FBS. HEK293T cells stably expressing empty vector (control) or HA-tagged wtACK or caACK were seeded at a density of 3 × 10^4 cells per well. Cells were plated in replicates of three, and live cell counts were obtained at the times indicated. Data are plotted as fold change over t = 0 (seeding density). Data from three independent experiments are shown. Error bars represent SD. […] GAPDH is included as a loading control. Data are represented on the right in a bar chart with group significance testing performed by a two-way ANOVA; ∗p <0.05; ∗∗p < 0.01. B, proliferation of HEK293T cells stably expressing empty vector (control), WT p85β, or Y599F p85β. HEK293T cells stably expressing inducible FLAG-tagged WT p85β or p85β Y599F were seeded at a density of 3 × 10^4 cells per well and incubated at 37 °C for 16 h. All cells were then treated with 1 μg/ml doxycycline and incubated at 37 °C for the times indicated before live cell counts were taken. Data are plotted as fold change over the cell count at 24 h post doxycycline treatment. […]
(§3) Matched cell lines were chosen that had similar expression levels of the transgene. […] Cells were trypsinized and dispersed using a syringe before being counted using a Countess automated cell counter at specific timepoints. […]

[2] = system: HEK293T cells expressing Y599F p85β; test: Proliferation of HEK293T cells stably expressing Y599F p85β; details: AIM-100 8 μM; DMEM + 10% FBS; 1 μg/ml doxycycline; live cell counts, fold change over 24 h; three independent experiments
Protocol: as §2, §3

pTyr284 ACK = test: Active ACK level (pTyr284 ACK Western blot) in HEK293T cells; details: AIM-100 8 μM; HEK293T cells expressing ACK and WT p85α; Western blot of whole cell lysate
Protocol: Figure 7 Subcellular localization of the ACK–p85α complex. ACK and WT p85α were expressed alone and together in HEK293T cells. Where indicated, cells were treated with 8 μM AIM-100. Fractionation was judged using anti-HSP56 to indicate cytoplasmic extracts and anti-fibrillarin to indicate nuclear-enriched fractions. Nuclear and cytoplasmic-enriched fractions were normalized using the Bradford assay, and FLAG-p85α was immunoprecipitated from fractions containing equal total protein using an anti-FLAG antibody. Top panel: Immunoprecipitation of FLAG-p85α and co-immunoprecipitation of HA-ACK was assessed by Western blotting using anti-FLAG and anti-HA antibodies. Bottom panel: Expression of FLAG-p85α and HA-ACK along with active ACK levels was confirmed by Western blotting of whole cell lysate (WCL) samples collected prior to cell fractionation. ACK, activated Cdc42-associated kinase. […]

ACK–p85α complex = test: Co-immunoprecipitation of ACK with p85α from nuclear-enriched fractions of HEK293T cells; details: AIM-100 8 μM, anti-FLAG immunoprecipitation
Protocol: Figure 7 Subcellular localization of the ACK–p85α complex. ACK and WT p85α were expressed alone and together in HEK293T cells. Where indicated, cells were treated with 8 μM AIM-100. Fractionation was judged using anti-HSP56 to indicate cytoplasmic extracts and anti-fibrillarin to indicate nuclear-enriched fractions. Nuclear and cytoplasmic-enriched fractions were normalized using the Bradford assay, and FLAG-p85α was immunoprecipitated from fractions containing equal total protein using an anti-FLAG antibody. Top panel: Immunoprecipitation of FLAG-p85α and co-immunoprecipitation of HA-ACK was assessed by Western blotting using anti-FLAG and anti-HA antibodies. Bottom panel: Expression of FLAG-p85α and HA-ACK along with active ACK levels was confirmed by Western blotting of whole cell lysate (WCL) samples collected prior to cell fractionation. ACK, activated Cdc42-associated kinase.
Small-scale co-immunoprecipitations were performed using 1 μg antibody cross-linked to Protein G Dynabeads (Life Technologies) with dimethyl pimelimidate. HEK293T cells were grown in 10 cm dishes to 70% confluence and then transfected for 40 h. […]
Cells were grown in 10 cm dishes to 70% confluence and then transfected for 40 h. […] Cytoplasmic and nuclear-enriched fractions were then either analyzed by SDS-PAGE gel directly or used in co-immunoprecipitation studies.

Compound	p50α–p85β complex formation (p50α–p85β complex)	p85α–p85β complex formation (p85α–p85β complex)	effect on proliferation of cells expressing WT p85β [1]	effect on proliferation of cells expressing Y599F p85β [2]	active ACK levels (pTyr284 ACK) (pTyr284 ACK)	p85α–ACK complex formation in the nucleus (ACK–p85α complex)
insulin: Tyr607 phosphorylation has been detected downstream of insulin stimulation	increased complex formation	not enhanced				
EGF: EGF (a known stimulator of ACK) (NSDSECPLSHDGYCLHDGVCMYIEALDKYACNCVVGYIGERCQYRDLKWWELR; UniProt P01133 971-1023, looked up)		increase				
c1ccc(-c2oc3ncnc(NC[C@@H]4CCCO4)c3c2-c2ccccc2)cc1 [AIM-100]			grew at a reduced rate	did not affect	reduced active ACK levels	did not block p85α–ACK complex formation

— PMC9127371, “Assembly of nuclear dimers of PI3K regulatory subunits is regulated by the Cdc42-activated tyrosine kinase ACK” (The Journal of Biological Chemistry, 2022)
